Patent US20230203440A1, “AXIAL STEM CELLS, METHODS OF PRODUCING AND USES THEREOF” (HELMHOLTZ ZENTRUM MUNCHEN - DEUTSCHES FORSCHUNGSZENTRUM FUR …, priority 2020, published 2023)

What was measured:
human iPSC line HMGU #1 = assay: Axial stem cell derivation from human iPS cell line; type: cell-based; settings: 10 μM CHIR99021 with inhibition of TGF-β, human iPSCs
Description: FIG. 6: A) Schematic of axial stem cell derivation from human iPS cell line (HMGU #1). μM concentrations refer to CHIR99021. […] B) Quantitative qPCR analysis of marker gene expression in iPS-derived axial stem cell lines at passage 9. Expression is normalized to GAPDH and plotted as log2 fold change over undifferentiated parental iPS cell line. Error bars represent standard error of the mean between biological replicates (derivations). n=1 to 6. Cells were seeded as described above and treated with 10 μM CHIR for 24 hours. Afterwards cells were split at 1:20-1:30 ratio into Matrigel-coated 6-well plates containing maintenance medium (RPMI-1640 supplemented with L-Glutamine, 1× non-essential amino acids, 1× B-27 supplement without vitamin A and the respective ligands (see Table 1) and the cultures were incubated until they became confluent. Confluent cultures were routinely split at 1:10-1:20 ratio until the end of establishment phase defined at passage 9. Splitting was done with either Passaging solution XF or Versene (Life Technologies). FGF2-containing medium was prepared freshly every week, the media without FGF2—at least every 2 weeks. No manual colony picking or scraping off the differentiated cells was employed at any stage during the establishment of cell lines.

H9 hESC line = assay: Axial stem cell derivation from hESCs by serial passaging in maintenance medium with ligands; type: cell-based, human; settings: for derivation of stable lines on addition of the ligand: added to maintenance medium
Description: Cells were seeded as described above and treated with 10 μM CHIR for 24 hours. Afterwards cells were split at 1:20-1:30 ratio into Matrigel-coated 6-well plates containing maintenance medium (RPMI-1640 supplemented with L-Glutamine, 1× non-essential amino acids, 1× B-27 supplement without vitamin A and the respective ligands (see Table 1) and the cultures were incubated until they became confluent. Confluent cultures were routinely split at 1:10-1:20 ratio until the end of establishment phase defined at passage 9. Splitting was done with either Passaging solution XF or Versene (Life Technologies). FGF2-containing medium was prepared freshly every week, the media without FGF2—at least every 2 weeks. No manual colony picking or scraping off the differentiated cells was employed at any stage during the establishment of cell lines.
Total RNA was isolated using RNeasy mini kit (Qiagen). cDNA was synthesized from 0.2-1 μg of total RNA (normalized amount between samples within each experiment) using Verso cDNA synthesis kit (Thermo Scientific) according to manufacturers instructions. 1 μl of cDNA (1:5 dilutions) were used as template in 10 μl qPCR reactions. PCR was set up using either pre-designed Taqman Gene Expression Assays together with Taqman Gene Expression Master Mix (both from Thermo Scientific) or custom-designed primers together with Power SYBR Green master mix (Thermo Scientific). All primer and Taqman probe details are listed in, e.g., Table 2. Primer concentration in the reactions was 250 nM for all primers. PCR was performed on QuantStudio 12K Flex Real-Time PCR System (Thermo Scientific) using pre-defined cycling parameters. 2 technical replicates were run for each reaction. Taqman assays and primers used are listed in, e.g., Table 2. GAPDH served as a housekeeping gene in all experiments. Relative fold changes (FC) in gene expression were calculated using ΔΔCt method (Livak and Schmittgen, 2001). Results are presented as mean ΔΔCt±standard error of the mean between biological replicates, unless indicated otherwise. Plots were produced using ggplot2 package (Wickham, 2009) in RStudio software running R version 3.5.1 (R Core Team, 2018).
For immunofluorescent analysis, cells were seeded onto either matrigel-coated glass coverslips or into matrigel-coated 4-well μ-slides (Ibidi). For IF on differentiated motor neurons, AxCS lines were differentiated directly on the coverslips. […] Primary antibody dilutions (e.g., Table 3) in the blocking buffer were added and incubated overnight at 4° C. Next day, cells were washed with PBS 3 times and incubated with secondary antibodies diluted in PBS for 1 hours at RT. Coverslips were mounted using ProLong Gold mounting reagent with DAPI. Images were obtained at 63× magnification using Zeiss Axio Observer.Z1 epifluorescent microscope equipped with Apotome.2 and Zen software (Zeiss).

hESCs = assay: Continuous CHIR99021 treatment of hESCs (time course, qPCR and RNA-seq); type: cell-based, human; settings: continuous 10 μM treatment of hESCs, compared to transient activation for 24 hours
Description: In time course experiments cells were dissociated using Accutase (Sigma) and seeded into 12-well plates at 2.5×10^5 cells per well in mTesR1 medium supplemented with 10 μM Y-27632 (R&D). 24 hours later medium was replaced with differentiation medium: RPMI-1640 with L-Glutamine and 1× B-27 supplement without insulin containing 10 μM CHIR99021 (Tocris). In case of beta-catenin overexpression, the procedure was the same, except that CHIR99021 was replaced with 1 μg/ml doxycycline (Clontech). All cell culture media components were from Life Technologies unless indicated otherwise.
Total RNA was isolated using RNeasy mini kit (Qiagen). cDNA was synthesized from 0.2-1 μg of total RNA (normalized amount between samples within each experiment) using Verso cDNA synthesis kit (Thermo Scientific) according to manufacturers instructions. […] Relative fold changes (FC) in gene expression were calculated using ΔΔCt method (Livak and Schmittgen, 2001). […]
3 μg of total RNA were treated with TURBO DNase (Life Technologies) and purified using RNeasy Minelute RNA cleanup kit (Qiagen). RNA quality was assessed using microcapillary electrophoresis on Agilent 2100 Bioanalyzer with RNA Pico 6000 kit (Agilent) and only RNA with RIN values >8 was processed further. […] The quality of the libraries was assessed using Agilent 2100 Bioanalyzer with the DNA 1000 kit (Agilent). […] Sequencing depth was 12-14 Mio reads per sample. […]

Cc1c[nH]c(-c2cnc(NCCNc3ccc(C#N)cn3)nc2-c2ccc(Cl)cc2Cl)n1 [CHIR99021]
derivation of axial cell lines (human iPSC line HMGU #1): permissive for the derivation of SOX2/TXBT axial cell lines | marker expression of derived cell lines (H9 hESC line; 5 μM CHIR99021 alone): high levels of SOX2 in conjunction with PAX6, but no T, CDX2, MIXL1 or EOMES | marker expression of derived cell lines (H9 hESC line; 5 μM CHIR99021 with FGF2): high levels of SOX2, TBXT, CDX2, MIXL1, EOMES and very low level or no PAX6 | marker expression of derived cell lines (H9 hESC line; 7.5 μM CHIR99021): intermediate levels of TXBT and PAX6 | toxicity to conversion (H9 hESC line; 10 μM CHIR99021, hESC): toxic to hESC conversion | derivation of cell lines (H9 hESC line; 5 or 7.5 μM CHIR99021, presence or absence of FGF2, hESCs): enabled the derivation of lines that exhibited compact stem cell colony morphology | derivation of cell lines (H9 hESC line; CHIR99021 lower than 5 μM): did not promote the formation of cell lines | SOX2 expression of passaged progeny (H9 hESC line; passaging beginning at 24 hours, in presence of CHIR99021): stably expressing SOX2 at a comparable level to undifferentiated hESCs | TBXT expression (hESCs): sustained high level of TBXT

NC(=O)c1ccc(-c2nc(-c3ccc4c(c3)OCO4)c(-c3ccccn3)[nH]2)cc1 [SB-431542]
spontaneous differentiation and colony compactness of the stem cell lines (H9 hESC line; TGF-β inhibition): reduced spontaneous differentiation and maintained the lines as more compact colonies | cell and colony morphology of derived lines (H9 hESC line; TGF-β inhibitor applied to maintenance medium): created more compact cells and denser colonies

FGF2
sustained TBXT expression on passaging (H9 hESC line; passaging in presence of CHIR99021 with or without FGF2): sustained expression required the presence of FGF2

TGF-β: Human recombinant TGF-β1 (Peprotech)
derivation of stable lines on addition of the ligand (H9 hESC line): prohibited the deviation of stable lines altogether

B1: BMP4: Human recombinant BMP4 (R&D Systems) (protein, UniProt P12644 293-408, looked up)
Bone morphogenetic protein 4: SPKHHSQRARKKNKNCRRHSLYVDFSDVGWNDWIVAPPGYQAFYCHGDCPFPLADHLNSTNHAIVQTLVNSVNSSIPKACCVPTELSAISMLYLDEYDKVVLKNYQEMVVEGCGCR
derivation of stable lines on addition of the ligand (H9 hESC line): prohibited the deviation of stable lines altogether
